Activity calls are given as the source filed them. The calls are words filed in the database; no cut-off is given here.
Assays:
[1] = Compound was evaluated for the opioid receptor agonistic activity at dose 1-10 mg/kg by intraperitoneal administration; Inactive; format: functional, organism-based
[2] = target: T1, Corticotropin-releasing factor receptor 1 (Rattus norvegicus, UniProt P35353); assay: Affinity against Corticotropin releasing factor receptor 1
T1 sequence (P35353 whole entry): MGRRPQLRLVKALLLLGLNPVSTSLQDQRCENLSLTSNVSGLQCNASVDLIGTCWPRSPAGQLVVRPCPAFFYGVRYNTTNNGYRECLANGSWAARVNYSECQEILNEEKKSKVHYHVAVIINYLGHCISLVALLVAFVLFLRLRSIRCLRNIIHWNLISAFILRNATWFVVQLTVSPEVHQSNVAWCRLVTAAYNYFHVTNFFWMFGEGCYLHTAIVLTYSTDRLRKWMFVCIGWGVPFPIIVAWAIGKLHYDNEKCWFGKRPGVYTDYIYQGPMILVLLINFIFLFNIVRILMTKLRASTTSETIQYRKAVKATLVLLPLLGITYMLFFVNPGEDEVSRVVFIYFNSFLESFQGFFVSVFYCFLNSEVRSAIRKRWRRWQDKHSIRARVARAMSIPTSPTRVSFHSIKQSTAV

[3] = target: T2, 5-hydroxytryptamine receptor 2C (Homo sapiens, UniProt P28335); assay: Affinity against 5-hydroxytryptamine 2C receptor
T2 sequence (P28335 whole entry): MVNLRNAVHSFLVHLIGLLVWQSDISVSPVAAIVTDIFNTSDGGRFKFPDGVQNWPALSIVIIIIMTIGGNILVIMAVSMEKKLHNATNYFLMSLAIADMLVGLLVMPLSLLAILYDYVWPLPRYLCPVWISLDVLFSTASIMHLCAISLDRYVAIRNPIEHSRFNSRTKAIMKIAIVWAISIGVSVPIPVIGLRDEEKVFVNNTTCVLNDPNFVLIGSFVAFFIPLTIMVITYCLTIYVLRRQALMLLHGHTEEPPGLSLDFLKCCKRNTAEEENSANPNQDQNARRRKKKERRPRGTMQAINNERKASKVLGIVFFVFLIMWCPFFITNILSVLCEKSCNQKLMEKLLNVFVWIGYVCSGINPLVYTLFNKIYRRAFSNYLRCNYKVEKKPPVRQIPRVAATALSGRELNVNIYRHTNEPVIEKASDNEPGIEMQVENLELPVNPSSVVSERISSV

[4] = tested on: Rattus norvegicus; assay: Spontaneous locomotion in rats was determined and distance moved was reported at dose 3.2 mg/kg by ip administration; format: functional; settings: route intraperitoneal
[5] = target: T3, D(4) dopamine receptor (Homo sapiens, UniProt P21917); assay: Affinity against Dopamine receptor D4.4
T3 sequence (P21917 whole entry): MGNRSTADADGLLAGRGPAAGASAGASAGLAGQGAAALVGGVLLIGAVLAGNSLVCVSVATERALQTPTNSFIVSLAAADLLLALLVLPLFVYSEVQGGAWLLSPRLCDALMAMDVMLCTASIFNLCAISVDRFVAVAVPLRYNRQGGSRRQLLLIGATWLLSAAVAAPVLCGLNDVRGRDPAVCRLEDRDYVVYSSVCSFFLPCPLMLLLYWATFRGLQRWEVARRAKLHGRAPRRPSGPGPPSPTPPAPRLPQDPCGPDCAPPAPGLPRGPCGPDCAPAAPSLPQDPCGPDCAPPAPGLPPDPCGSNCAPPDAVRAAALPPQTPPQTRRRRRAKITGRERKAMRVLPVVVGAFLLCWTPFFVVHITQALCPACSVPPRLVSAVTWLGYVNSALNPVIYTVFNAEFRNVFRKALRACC

[6] = target: 5-hydroxytryptamine receptor 6 (Homo sapiens, UniProt P50406); assay: Affinity against 5-hydroxytryptamine 6 receptor
[7] = target: D(2) dopamine receptor (Homo sapiens, UniProt P14416); assay: Affinity against Dopamine receptor D2
[8] = tested on: Rattus norvegicus; assay: Forced motor performance in rats was determined and traction test score was reported at 0.32 mg/kg by ip administration; format: functional; settings: route intraperitoneal
[9] = Affinity against Corticotropin releasing factor receptor 2 alpha
[10] = tested on: Rattus norvegicus; assay: Forced motor performance in rats was determined and traction test score was reported at 3.2 mg/kg by ip administration; format: functional; settings: route intraperitoneal
[11] = target: D(1A) dopamine receptor (Mus musculus, UniProt Q61616); assay: Affinity against Dopamine receptor D1
[12] = tested on: Rattus norvegicus; assay: Forced motor performance in rats was determined and grip strength was reported at 3.2 mg/kg by ip administration; format: functional; settings: route intraperitoneal
[13] = target: 5-hydroxytryptamine receptor 1D (Homo sapiens, UniProt P28221); assay: Affinity against 5-hydroxytryptamine 1D receptor alpha
[14] = target: GABA-A receptor; anion channel; assay: Binding affinity for GABA-A central benzodiazepine receptor; format: protein-complex assay
[15] = target: D(3) dopamine receptor (Homo sapiens, UniProt P35462); assay: Affinity against Dopamine receptor D3
[16] = target: 5-hydroxytryptamine receptor 2A (Homo sapiens, UniProt P28223); assay: Affinity against 5-hydroxytryptamine 2A receptor
[17] = target: 5-hydroxytryptamine receptor 7 (Homo sapiens, UniProt P34969); assay: Affinity against 5-hydroxytryptamine 7 receptor
[18] = tested on: Rattus norvegicus; assay: Spontaneous locomotion in rats was determined and distance moved was reported at dose 0.32 mg/kg by ip administration; format: functional; settings: route intraperitoneal
[19] = tested on: Rattus norvegicus; assay: Forced motor performance in rats was determined and traction test score was reported at 1 mg/kg by ip administration; format: functional; settings: route intraperitoneal
[20] = tested on: Rattus norvegicus; assay: Forced motor performance in rats was determined and grip strength was reported at 1 mg/kg by ip administration; format: functional; settings: route intraperitoneal
[21] = tested on: Rattus norvegicus; assay: Spontaneous locomotion in rats was determined and distance moved was reported at dose 1 mg/kg by ip administration; format: functional; settings: route intraperitoneal
[22] = tested on: Rattus norvegicus; assay: Forced motor performance in rats was determined and grip strength was reported at 0.32 mg/kg by ip administration; format: functional; settings: route intraperitoneal

Chain of 5-hydroxytryptamine receptor 1D (P28221 whole entry): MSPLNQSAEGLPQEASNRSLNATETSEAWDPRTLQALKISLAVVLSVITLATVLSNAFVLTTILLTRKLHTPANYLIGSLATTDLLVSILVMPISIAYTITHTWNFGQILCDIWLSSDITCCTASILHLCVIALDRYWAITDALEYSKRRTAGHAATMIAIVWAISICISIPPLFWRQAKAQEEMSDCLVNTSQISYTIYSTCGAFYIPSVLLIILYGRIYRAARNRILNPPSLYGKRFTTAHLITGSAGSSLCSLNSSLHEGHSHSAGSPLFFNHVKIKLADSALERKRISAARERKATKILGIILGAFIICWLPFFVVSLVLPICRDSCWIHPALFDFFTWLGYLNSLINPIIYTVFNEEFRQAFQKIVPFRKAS
Chain of 5-hydroxytryptamine receptor 2A (P28223 whole entry): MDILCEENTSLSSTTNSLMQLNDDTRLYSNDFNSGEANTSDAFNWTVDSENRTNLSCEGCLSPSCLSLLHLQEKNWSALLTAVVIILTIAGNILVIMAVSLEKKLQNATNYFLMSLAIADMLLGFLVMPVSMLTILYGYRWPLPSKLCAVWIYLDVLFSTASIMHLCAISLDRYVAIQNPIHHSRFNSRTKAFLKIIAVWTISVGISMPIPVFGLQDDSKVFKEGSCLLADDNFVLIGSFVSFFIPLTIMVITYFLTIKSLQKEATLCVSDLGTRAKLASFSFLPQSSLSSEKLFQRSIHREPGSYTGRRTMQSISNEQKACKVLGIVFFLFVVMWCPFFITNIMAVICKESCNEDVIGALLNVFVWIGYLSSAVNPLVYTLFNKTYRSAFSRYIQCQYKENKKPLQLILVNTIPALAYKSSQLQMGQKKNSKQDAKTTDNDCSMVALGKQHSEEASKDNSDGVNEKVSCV
Chain of 5-hydroxytryptamine receptor 6 (P50406 whole entry): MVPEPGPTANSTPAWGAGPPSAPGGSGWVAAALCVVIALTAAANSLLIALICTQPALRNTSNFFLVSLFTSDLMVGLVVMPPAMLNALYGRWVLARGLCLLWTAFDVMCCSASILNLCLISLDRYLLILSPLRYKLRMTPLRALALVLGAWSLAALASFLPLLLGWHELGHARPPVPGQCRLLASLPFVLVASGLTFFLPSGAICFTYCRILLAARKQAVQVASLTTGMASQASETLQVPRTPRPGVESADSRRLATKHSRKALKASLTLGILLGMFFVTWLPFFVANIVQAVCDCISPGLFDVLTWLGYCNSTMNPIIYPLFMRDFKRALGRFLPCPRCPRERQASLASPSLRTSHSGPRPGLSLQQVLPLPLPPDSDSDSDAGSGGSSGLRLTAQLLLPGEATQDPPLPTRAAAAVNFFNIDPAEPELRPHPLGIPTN
Chain of 5-hydroxytryptamine receptor 7 (P34969 whole entry): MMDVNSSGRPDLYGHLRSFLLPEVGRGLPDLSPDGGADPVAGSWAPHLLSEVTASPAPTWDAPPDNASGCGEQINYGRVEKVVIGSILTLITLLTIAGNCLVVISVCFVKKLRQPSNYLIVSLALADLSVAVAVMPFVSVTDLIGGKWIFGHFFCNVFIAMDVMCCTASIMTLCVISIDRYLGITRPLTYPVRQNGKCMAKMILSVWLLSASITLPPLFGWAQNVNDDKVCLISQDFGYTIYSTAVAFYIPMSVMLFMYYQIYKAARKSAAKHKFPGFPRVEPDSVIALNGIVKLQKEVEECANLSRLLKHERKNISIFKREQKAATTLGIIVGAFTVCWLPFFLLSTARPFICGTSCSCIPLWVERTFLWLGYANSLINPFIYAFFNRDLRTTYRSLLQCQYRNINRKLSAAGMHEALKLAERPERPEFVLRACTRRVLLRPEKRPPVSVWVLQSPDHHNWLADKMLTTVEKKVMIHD
Chain of D(3) dopamine receptor (P35462 whole entry): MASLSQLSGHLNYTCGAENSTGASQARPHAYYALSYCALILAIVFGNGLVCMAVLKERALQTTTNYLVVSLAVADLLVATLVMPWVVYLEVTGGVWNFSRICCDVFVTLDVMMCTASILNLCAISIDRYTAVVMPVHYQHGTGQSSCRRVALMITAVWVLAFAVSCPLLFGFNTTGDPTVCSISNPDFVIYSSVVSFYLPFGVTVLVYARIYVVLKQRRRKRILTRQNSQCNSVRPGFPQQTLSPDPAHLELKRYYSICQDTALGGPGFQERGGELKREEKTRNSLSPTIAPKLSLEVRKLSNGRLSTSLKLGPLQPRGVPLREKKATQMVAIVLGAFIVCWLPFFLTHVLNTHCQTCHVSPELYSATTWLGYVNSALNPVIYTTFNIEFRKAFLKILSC
Chain of D(2) dopamine receptor (P14416 whole entry): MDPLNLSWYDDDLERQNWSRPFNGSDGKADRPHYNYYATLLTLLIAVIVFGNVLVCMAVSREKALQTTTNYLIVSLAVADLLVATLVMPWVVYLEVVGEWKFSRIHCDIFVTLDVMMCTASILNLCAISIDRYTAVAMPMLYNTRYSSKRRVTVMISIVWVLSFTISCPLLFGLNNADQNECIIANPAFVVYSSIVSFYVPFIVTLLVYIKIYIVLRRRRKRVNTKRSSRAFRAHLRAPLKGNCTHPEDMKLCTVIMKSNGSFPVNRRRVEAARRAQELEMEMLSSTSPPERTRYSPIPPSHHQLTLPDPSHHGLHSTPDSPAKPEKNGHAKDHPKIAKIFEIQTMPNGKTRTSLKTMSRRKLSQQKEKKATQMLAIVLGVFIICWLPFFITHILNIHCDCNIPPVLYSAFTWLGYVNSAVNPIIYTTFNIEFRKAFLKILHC
Chain of D(1A) dopamine receptor (Q61616 whole entry): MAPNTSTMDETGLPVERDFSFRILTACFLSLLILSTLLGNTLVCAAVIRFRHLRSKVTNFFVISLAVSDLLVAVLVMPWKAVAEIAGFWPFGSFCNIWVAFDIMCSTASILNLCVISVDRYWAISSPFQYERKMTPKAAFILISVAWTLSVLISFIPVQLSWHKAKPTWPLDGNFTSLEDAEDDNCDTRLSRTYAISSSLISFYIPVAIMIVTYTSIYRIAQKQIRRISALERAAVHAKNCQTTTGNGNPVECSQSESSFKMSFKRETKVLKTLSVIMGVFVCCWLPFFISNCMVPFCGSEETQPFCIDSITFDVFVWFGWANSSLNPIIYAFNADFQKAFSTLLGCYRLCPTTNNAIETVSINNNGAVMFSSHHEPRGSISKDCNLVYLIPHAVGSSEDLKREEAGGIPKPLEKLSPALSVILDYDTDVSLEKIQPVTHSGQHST

For `CN1CC[C@]23c4c5ccc(O)c4O[C@H]2[C@@H](O)C=C[C@H]3[C@H]1C5`, the Activity [1] was “inactive”.

In the case of `O=C1NCN(c2ccccc2)C12CCN([C@@H]1Cc3cccc4cccc1c34)CC2`, the “Log Ki” value [2] is reported as less than -6.5, the “Log Ki” value [3] is reported as less than -6.5 and the Locomotion [4] is reported as 1141.08 cm. The “Log Ki” value [5] was less than -6.5, the “Log Ki” value [6] was less than -6.5 and the “Log Ki” value [7] was less than -6.5. The Traction test [8] was 4 score, the “Log Ki” value [9] was less than -6.5 and the Traction test [10] was 3.75 score. The “Log Ki” value [11] was less than -6.5, the Grip strength [12] was 479 g and the “Log Ki” value [13] was less than -6.5. The “Log Ki” value [14] was less than -6.5, the “Log Ki” value [15] was less than -6.5 and the “Log Ki” value [16] was less than -6.5. For the same compound, the “Log Ki” value [17] was less than -6.5, the Locomotion [18] was 1412.39 cm and the Traction test [19] was 4 score. It also gave a Grip strength [20] of 521.63 g, a Locomotion [21] of 1465.79 cm and a Grip strength [22] of 516.25 g.

— ChEMBL document CHEMBL1131838, “8-acenaphthen-1-yl-1-phenyl-1,3,8-triaza-spiro[4.5]decan-4-one derivatives as orphanin FQ receptor agonists” (Bioorg Med Chem Lett, 1999)
